Measurements from PMC11536976 (RSC Advances, 2024).
Where two headings read alike, the source gives them in different places.

Experiments:
Format in all cases: cell-based, human
SW480 cells = assay: MTT cytotoxicity assay, SW480; settings: for IC50: Homo sapiens, SW480, 72 h, read-out: IC50 SW480; for SI SW480: selectivity index = IC50 in MRC-5 / IC50 in SW480
A549 cells [1] = assay: MTT cytotoxicity assay, A549; settings: for IC50: read-out: IC50 A549; for SI A549: selectivity index = IC50 in MRC-5 / IC50 in A549
A549 cells [2] = assay: Apoptosis assay, Annexin V-FITC/PI flow cytometry; settings: 24 h; for early apoptotic cells (Q3, annexin+/PI-): control 1.8%; for late apoptotic cells (Q2, annexin+/PI+): control 2.4%
A549 cells [3] = assay: Cell cycle analysis by flow cytometry; settings: 24 h; for cell population in S phase: control 18.89%; for cell population in G0/G1 phase: control 67.87%

**Q.** For `COc1cc(-c2nc3ccc(C(=O)Nc4cccc([N+](=O)[O-])c4)cc3[nH]2)cc(OC)c1OC` [Compound 5k, N-(3-Nitrophenyl)-2-(3,4,5-trimethoxyphenyl)-1H-benzo[d]imidazole-6-carboxamide], which IC50 (SW480 cells) is on record?
**A.** 16.8 ± 1.41 µM

**Q.** What about the IC50 (A549 cells [1]; Homo sapiens, A549, 72 h) of the same molecule?
**A.** 14.4 ± 3.53 µM

**Q.** Which IC50 (SW480 cells) does the source give for `COc1cc(-c2nc3ccc(C(=O)Nc4ccccc4F)cc3[nH]2)cc(OC)c1OC` [Compound 5f, N-(2-Fluorophenyl)-2-(3,4,5-trimethoxyphenyl)-1H-benzo[d]imidazole-6-carboxamide] here?
**A.** 6.38 ± 1.95 µM

**Q.** What about the “SI SW480” value (SW480 cells) of the same molecule?
**A.** 1.7

**Q.** And the IC50 (A549 cells [1]; Homo sapiens, A549, 72 h)?
**A.** 0.67 ± 0.15 µM

**Q.** And the “SI A549” value (A549 cells [1])?
**A.** 15.8

**Q.** Which IC50 (SW480 cells) does the source give for `COc1cc(-c2nc3ccc(C(=O)Nc4ccc(Br)cc4)cc3[nH]2)cc(OC)c1OC` [Compound 5j, N-(4-Bromophenyl)-2-(3,4,5-trimethoxyphenyl)-1H-benzo[d]imidazole-6-carboxamide] here?
**A.** 15.2 ± 2.58 µM

**Q.** What about the IC50 (A549 cells [1]; Homo sapiens, A549, 72 h) of the same molecule?
**A.** 13.1 ± 1.27 µM

**Q.** Which IC50 (SW480 cells) does the source give for `COc1cc(-c2nc3ccc(C(=O)Nc4ccccc4)cc3[nH]2)cc(OC)c1OC` [Compound 5e, N-Phenyl-2-(3,4,5-trimethoxyphenyl)-1H-benzo[d]imidazole-6-carboxamide] here?
**A.** 5.45 ± 0.67 µM

**Q.** And the “SI SW480” value (SW480 cells)?
**A.** 2.1

**Q.** And the IC50 (A549 cells [1]; Homo sapiens, A549, 72 h)?
**A.** 0.23 ± 0.05 µM

**Q.** And the “SI A549” value (A549 cells [1])?
**A.** 50.2

**Q.** How did the IC50 (A549 cells [1]; MTT, 72 h, mean ± SD of 3–4 independent replicates) turn out when `N.N.[Cl][Pt][Cl]` [Cisplatin, reference compound] was run?
**A.** 5.77 ± 1.6 µM

**Q.** How did the IC50 (SW480 cells) turn out when `COc1cc(-c2nc3ccc(C(=O)NCCc4ccccc4)cc3[nH]2)cc(OC)c1OC` [Compound 5d, N-Phenethyl-2-(3,4,5-trimethoxyphenyl)-1H-benzo[d]imidazole-6-carboxamide] was run?
**A.** 18.2 ± 2.69 µM

**Q.** And the IC50 (A549 cells [1]; Homo sapiens, A549, 72 h)?
**A.** 0.66 ± 0.13 µM

**Q.** For `COc1cc(-c2nc3ccc(C(=O)Nc4ccc(C)cc4C)cc3[nH]2)cc(OC)c1OC` [Compound 5n, N-(2,4-Dimethylphenyl)-2-(3,4,5-trimethoxyphenyl)-1H-benzo[d]imidazole-6-carboxamide], which IC50 (SW480 cells) is on record?
**A.** 14.8 ± 1.63 µM

**Q.** And the IC50 (A549 cells [1]; Homo sapiens, A549, 72 h)?
**A.** 1.38 ± 0.23 µM

**Q.** With `COc1cc(-c2nc3ccc(C(=O)NCC(C)C)cc3[nH]2)cc(OC)c1OC` [Compound 5b, N-Isobutyl-2-(3,4,5-trimethoxyphenyl)-1H-benzo[d]imidazole-6-carboxamide] as the molecule, how does the IC50 (SW480 cells) read?
**A.** 18.8 ± 3.25 µM

**Q.** What about the IC50 (A549 cells [1]; Homo sapiens, A549, 72 h) of the same molecule?
**A.** 0.82 ± 0.2 µM

**Q.** What does the source list for `COc1cc(-c2nc3ccc(C(=O)Nc4cccc(Cl)c4)cc3[nH]2)cc(OC)c1OC` [Compound 5h, N-(3-Chlorophenyl)-2-(3,4,5-trimethoxyphenyl)-1H-benzo[d]imidazole-6-carboxamide]?
**A.** IC50 (SW480 cells): 52.7 ± 2.96 µM; IC50 (A549 cells [1]; Homo sapiens, A549, 72 h): 27.5 ± 6.78 µM

**Q.** How did the IC50 (SW480 cells) turn out when `COc1ccc(NC(=O)c2ccc3nc(-c4cc(OC)c(OC)c(OC)c4)[nH]c3c2)c(OC)c1` [Compound 5o, N-(2,4-Dimethoxyphenyl)-2-(3,4,5-trimethoxyphenyl)-1H-benzo[d]imidazole-6-carboxamide] was run?
**A.** 3.68 ± 0.59 µM

**Q.** What about the “fold stronger cytotoxic activity than cisplatin” value (SW480 cells; SW480 cells) of the same molecule?
**A.** 4.1 fold

**Q.** And the “fold stronger cytotoxic activity than etoposide” value (SW480 cells; SW480 cells)?
**A.** 4.5 fold

**Q.** What about the “SI SW480” value (SW480 cells) of the same molecule?
**A.** 32.4

**Q.** And the “total apoptosis rate (Q2 + Q3)” value (A549 cells [2]; A549, 0.15 μM)?
**A.** 15.2%

**Q.** What about the “early apoptotic cells (Q3, annexin+/PI-)” value (A549 cells [2]; A549, 0.15 μM) of the same molecule?
**A.** 9.8%

**Q.** And the “late apoptotic cells (Q2, annexin+/PI+)” value (A549 cells [2]; A549, 0.15 μM)?
**A.** 5.4%

**Q.** And the “total apoptosis rate (Q2 + Q3)” value (A549 cells [2]; A549, 0.30 μM)?
**A.** 74.3%

**Q.** What about the “early apoptotic cells (Q3, annexin+/PI-)” value (A549 cells [2]; A549, 0.30 μM) of the same molecule?
**A.** 34.4%

**Q.** And the “late apoptotic cells (Q2, annexin+/PI+)” value (A549 cells [2]; A549, 0.30 μM)?
**A.** 39.9%

**Q.** What about the “cell population in S phase” value (A549 cells [3]; A549, 0.15 μM) of the same molecule?
**A.** 43.58%

**Q.** And the “cell population in G0/G1 phase” value (A549 cells [3]; A549, 0.15 μM)?
**A.** 46.44%

**Q.** What about the “cell population in G2/M phase” value (A549 cells [3]; A549, 0.30 μM, control 13.24%) of the same molecule?
**A.** 4.53%

**Q.** What about the “cell population in S phase” value (A549 cells [3]; A549, 0.30 μM) of the same molecule?
**A.** 60.31%

**Q.** What about the “cell population in G0/G1 phase” value (A549 cells [3]; A549, 0.30 μM) of the same molecule?
**A.** 35.16%

**Q.** What about the “fold higher cytotoxic activity than cisplatin” value (A549 cells [1]; A549 cells) of the same molecule?
**A.** 38.5 fold

**Q.** What about the “fold higher cytotoxic activity than doxorubicin” value (A549 cells [1]; A549 cells) of the same molecule?
**A.** 3.1 fold

**Q.** And the “fold higher cytotoxic activity than etoposide” value (A549 cells [1]; A549 cells)?
**A.** 62.9 fold

**Q.** And the IC50 (A549 cells [1]; Homo sapiens, A549, 72 h)?
**A.** 0.15 ± 0.01 µM

**Q.** What about the “SI A549” value (A549 cells [1]) of the same molecule?
**A.** 794.6

**Q.** Which results are given for `COc1cccc2c1C(=O)c1c(O)c3c(c(O)c1C2=O)C[C@@](O)(C(=O)CO)C[C@@H]3O[C@H]1C[C@H](N)[C@H](O)[C@H](C)O1` [Doxorubicin, reference compound]?
**A.** IC50 (SW480 cells): 0.59 ± 0.07 µM; SI SW480 (SW480 cells): 0.7; IC50 (A549 cells [1]; Homo sapiens, A549, 72 h): 0.46 ± 0.02 µM; SI A549 (A549 cells [1]): 0.8

**Q.** With `CCCCNC(=O)c1ccc2nc(-c3cc(OC)c(OC)c(OC)c3)[nH]c2c1` [Compound 5a, N-Butyl-2-(3,4,5-trimethoxyphenyl)-1H-benzo[d]imidazole-6-carboxamide] as the molecule, how does the IC50 (SW480 cells) read?
**A.** 46.1 ± 9.23 µM

**Q.** What about the IC50 (A549 cells [1]; Homo sapiens, A549, 72 h) of the same molecule?
**A.** 24.8 ± 5.21 µM

**Q.** Which IC50 (SW480 cells) does the source give for `COc1cc([C@@H]2c3cc4c(cc3[C@@H](O[C@@H]3O[C@@H]5CO[C@@H](C)O[C@H]5[C@H](O)[C@H]3O)[C@H]3COC(=O)[C@H]23)OCO4)cc(OC)c1O` [Etoposide, reference compound] here?
**A.** 16.6 ± 2.3 µM

**Q.** And the IC50 (A549 cells [1]; Homo sapiens, A549, 72 h)?
**A.** 9.44 ± 1.98 µM

**Q.** How did the IC50 (SW480 cells) turn out when `COc1cc(-c2nc3ccc(C(=O)Nc4ccc(C)cc4)cc3[nH]2)cc(OC)c1OC` [Compound 5m, N-(p-Tolyl)-2-(3,4,5-trimethoxyphenyl)-1H-benzo[d]imidazole-6-carboxamide] was run?
**A.** 13 ± 1.2 µM

**Q.** What about the “SI SW480” value (SW480 cells) of the same molecule?
**A.** 1.2

**Q.** What about the IC50 (A549 cells [1]; Homo sapiens, A549, 72 h) of the same molecule?
**A.** 0.52 ± 0.12 µM

**Q.** What about the “SI A549” value (A549 cells [1]) of the same molecule?
**A.** 28.9

**Q.** With `COc1cc(-c2nc3ccc(C(=O)Nc4ccc([N+](=O)[O-])cc4Cl)cc3[nH]2)cc(OC)c1OC` [Compound 5i, N-(2-Chloro-4-nitrophenyl)-2-(3,4,5-trimethoxyphenyl)-1H-benzo[d]imidazole-6-carboxamide] as the molecule, how does the IC50 (SW480 cells) read?
**A.** 20.2 ± 7.21 µM

**Q.** What about the IC50 (A549 cells [1]; Homo sapiens, A549, 72 h) of the same molecule?
**A.** 5.78 ± 4.85 µM

**Q.** Which IC50 (SW480 cells) does the source give for `COc1cc(-c2nc3ccc(C(=O)Nc4ccccc4C)cc3[nH]2)cc(OC)c1OC` [Compound 5l, N-(o-Tolyl)-2-(3,4,5-trimethoxyphenyl)-1H-benzo[d]imidazole-6-carboxamide] here?
**A.** 9.31 ± 0.21 µM

**Q.** What about the IC50 (A549 cells [1]; Homo sapiens, A549, 72 h) of the same molecule?
**A.** 0.92 ± 0.39 µM

**Q.** `COc1cc(-c2nc3ccc(C(=O)Nc4ccccc4Cl)cc3[nH]2)cc(OC)c1OC` [Compound 5g, N-(2-Chlorophenyl)-2-(3,4,5-trimethoxyphenyl)-1H-benzo[d]imidazole-6-carboxamide] was tested. Which IC50 (SW480 cells) did it give?
**A.** 49.1 ± 2.84 µM

**Q.** What about the IC50 (A549 cells [1]; Homo sapiens, A549, 72 h) of the same molecule?
**A.** 17.3 ± 3.5 µM

**Q.** Which results are given for `COc1cc(-c2nc3ccc(C(=O)NCc4ccccc4)cc3[nH]2)cc(OC)c1OC` [Compound 5c, N-Benzyl-2-(3,4,5-trimethoxyphenyl)-1H-benzo[d]imidazole-6-carboxamide]?
**A.** IC50 (SW480 cells): 34.8 ± 5.37 µM; IC50 (A549 cells [1]; Homo sapiens, A549, 72 h): 16.3 ± 5.73 µM
